The values below come from PMC7259601 (PLoS ONE, 2020).

Broadly, the % inhibition is the share of the control response that was lost under treatment. By inhibition is commonly meant the change of the read-out against control, counted positive when it falls. A word on the EC50: it is the concentration that produces a half-maximal response.

The structures appear in SMILES notation. Several values for one entry are separate records, joined by “and”; a condition that tells them apart may be missing. Equal values may be shown once.

One assay concerns SAMP8 mice. Description: Open Field (OF). The note with it: 0.32 or 0.96 mg/kg/day. Type of assay: in vivo, mouse. On the procedure: Both male and female mice from the senescence accelerated strain SAMP8 and its control SAMR1 of different ages (see Table S3 for details) were used in these studies. Mice were breed in the animal facilities of the Pharmacy Faculty (University of Barcelona), maintained in a at 22 ± 2 °C controlled temperature in a 12 hr light / dark cycle (lights on at 8:00 am; 300 lux/0 lux) with ad libitum access to food (2018 TEKLAD, Harlan) and water. Male mice were housed individually (males) or in groups of 4-5 animals (females) in plastic colony boxes with a sawdust bedding material. […] SAMR1 mice treated with vehicle were included as a control. […] Drug concentration was calculated weekly in function of body weight and corrected in function of drinking water consumption. Cognitive function was evaluated by NORT, social behavior was evaluated by RI and anxiety and motor function were evaluated by EPM and OF. […]
A 50 × 50-cm white plastic arena with 25-cm-high walls was used to analyze spontaneous exploratory behavior. […] The movements of each animal were video recorded during 5 min. Locomotor activity was analyzed by video-tracking over the captured images using SMART® (v 2.5.21 (rat) or v3.0 (mice), PanLab, SLU, Spain).
Novel Object Recognition Test (NORT): Time exploring the novel (NO) and the familiar object (FO) was measured and a discrimination Index (DI) was defined as (NO-FO)/(NO+FO). […]

Assay [1] relates to I2 (antagonist radioligand). Briefly: CEREP Diversity Panel. Type of assay: binding. On the set-up: % inhibition: dose or concentration left out as unconfirmed. How it is done: (§1) […]. MAO-A inhibition at 10 μM was 37%, in line with internal data.
Assay [2] deals with M (non-selective) (antagonist radioligand). Briefly: CEREP Diversity Panel. Set-up: % inhibition: dose or concentration left out as unconfirmed. Type of assay: binding. How it is done:
as §1

Assay [3] deals with T1, A3 (h) (agonist radioligand) (Homo sapiens, UniProt P0DMS8).
T1 construct: purchased CEREP (Eurofins Cerep)
Briefly: CEREP Diversity Panel. Type of assay: binding. On the procedure:
as §1

For assay [4], the target named is T2, AT1 (h) (antagonist radioligand) (Homo sapiens, UniProt P30556).
T2 construct: purchased CEREP (Eurofins Cerep)
T2 sequence (P30556 whole entry): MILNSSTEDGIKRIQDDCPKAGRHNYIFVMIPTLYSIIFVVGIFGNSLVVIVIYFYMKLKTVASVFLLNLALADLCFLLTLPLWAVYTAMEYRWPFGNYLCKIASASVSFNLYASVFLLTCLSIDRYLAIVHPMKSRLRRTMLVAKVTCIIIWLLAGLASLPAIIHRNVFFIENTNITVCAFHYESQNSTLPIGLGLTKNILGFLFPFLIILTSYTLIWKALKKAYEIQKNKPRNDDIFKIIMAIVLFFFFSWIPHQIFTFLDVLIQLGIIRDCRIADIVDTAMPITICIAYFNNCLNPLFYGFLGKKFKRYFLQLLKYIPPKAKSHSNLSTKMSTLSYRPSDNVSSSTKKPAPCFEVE
Description: CEREP Diversity Panel. Type of assay: binding. On the procedure: as §1

The target of assay [5] is T3, CB2 (h) (agonist radioligand) (Homo sapiens, UniProt P34972).
T3 construct: purchased CEREP (Eurofins Cerep)
T3 sequence (P34972 whole entry): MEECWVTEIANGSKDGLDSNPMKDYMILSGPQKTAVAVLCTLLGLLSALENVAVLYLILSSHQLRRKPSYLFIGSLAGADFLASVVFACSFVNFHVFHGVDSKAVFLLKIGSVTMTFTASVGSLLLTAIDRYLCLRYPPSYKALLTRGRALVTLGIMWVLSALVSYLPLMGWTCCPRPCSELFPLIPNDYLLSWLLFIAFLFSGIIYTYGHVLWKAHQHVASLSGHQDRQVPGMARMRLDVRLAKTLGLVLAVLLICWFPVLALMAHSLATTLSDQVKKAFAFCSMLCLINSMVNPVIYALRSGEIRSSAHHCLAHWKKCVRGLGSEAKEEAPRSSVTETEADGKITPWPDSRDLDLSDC
Description: CEREP Diversity Panel. Type of assay: binding. On the procedure: as §1

For assay [6], the target named is T4, CCK2 (CCKB) (h) (agonist radioligand) (Homo sapiens, UniProt P32239).
T4 construct: purchased CEREP (Eurofins Cerep)
T4 sequence (P32239 whole entry): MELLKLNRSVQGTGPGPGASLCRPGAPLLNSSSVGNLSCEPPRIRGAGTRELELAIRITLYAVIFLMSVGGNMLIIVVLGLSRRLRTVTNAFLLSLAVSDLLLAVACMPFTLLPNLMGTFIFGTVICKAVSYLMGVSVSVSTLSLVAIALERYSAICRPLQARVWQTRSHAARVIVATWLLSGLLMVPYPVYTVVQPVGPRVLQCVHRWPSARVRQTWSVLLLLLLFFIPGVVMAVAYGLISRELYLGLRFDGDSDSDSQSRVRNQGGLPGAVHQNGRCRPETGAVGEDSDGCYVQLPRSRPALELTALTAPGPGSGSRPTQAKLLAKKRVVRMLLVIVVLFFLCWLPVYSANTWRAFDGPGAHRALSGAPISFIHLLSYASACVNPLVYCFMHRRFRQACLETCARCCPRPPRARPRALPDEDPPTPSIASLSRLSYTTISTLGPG
Description: CEREP Diversity Panel. Type of assay: binding. How it is done:
as §1

Assay [7] has as its target T5, D1 (h) (antagonist radioligand) (Homo sapiens, UniProt P21728).
T5 construct: purchased CEREP (Eurofins Cerep)
Description: CEREP Diversity Panel. Type of assay: binding. On the procedure:
as §1

The target of assay [8] is T6, D3 (h) (antagonist radioligand) (Homo sapiens, UniProt P35462).
T6 construct: purchased CEREP (Eurofins Cerep)
T6 sequence (P35462 whole entry): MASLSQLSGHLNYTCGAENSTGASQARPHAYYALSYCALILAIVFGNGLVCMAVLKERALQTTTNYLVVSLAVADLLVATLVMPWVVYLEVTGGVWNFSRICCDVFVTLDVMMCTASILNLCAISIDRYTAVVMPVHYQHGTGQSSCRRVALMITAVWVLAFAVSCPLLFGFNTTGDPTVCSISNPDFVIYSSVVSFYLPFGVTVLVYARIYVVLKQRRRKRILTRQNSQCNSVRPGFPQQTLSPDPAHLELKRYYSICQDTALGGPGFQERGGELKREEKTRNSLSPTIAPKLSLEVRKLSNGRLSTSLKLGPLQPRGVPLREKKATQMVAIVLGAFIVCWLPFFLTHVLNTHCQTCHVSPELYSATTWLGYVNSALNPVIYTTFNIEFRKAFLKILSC
Briefly: CEREP Diversity Panel. Type of assay: binding. How it is done: as §1

For assay [9], the target named is T7, EP2 (h) (agonist radioligand) (Homo sapiens, UniProt P43116).
T7 construct: purchased CEREP (Eurofins Cerep)
T7 sequence (P43116 whole entry): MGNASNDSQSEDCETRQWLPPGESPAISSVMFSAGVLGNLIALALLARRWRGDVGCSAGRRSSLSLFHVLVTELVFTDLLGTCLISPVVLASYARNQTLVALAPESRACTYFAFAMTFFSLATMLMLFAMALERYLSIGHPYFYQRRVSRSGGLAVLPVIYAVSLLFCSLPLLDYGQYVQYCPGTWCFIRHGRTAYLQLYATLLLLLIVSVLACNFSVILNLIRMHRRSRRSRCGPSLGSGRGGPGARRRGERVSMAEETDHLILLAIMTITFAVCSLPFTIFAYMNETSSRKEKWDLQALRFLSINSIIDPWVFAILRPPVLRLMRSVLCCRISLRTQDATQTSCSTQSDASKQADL
Briefly: CEREP Diversity Panel. Type of assay: binding. On the procedure:
as §1

The target of assay [10] is T8, H1 (h) (antagonist radioligand) (Homo sapiens, UniProt P35367).
T8 construct: purchased CEREP (Eurofins Cerep)
T8 sequence (P35367 whole entry): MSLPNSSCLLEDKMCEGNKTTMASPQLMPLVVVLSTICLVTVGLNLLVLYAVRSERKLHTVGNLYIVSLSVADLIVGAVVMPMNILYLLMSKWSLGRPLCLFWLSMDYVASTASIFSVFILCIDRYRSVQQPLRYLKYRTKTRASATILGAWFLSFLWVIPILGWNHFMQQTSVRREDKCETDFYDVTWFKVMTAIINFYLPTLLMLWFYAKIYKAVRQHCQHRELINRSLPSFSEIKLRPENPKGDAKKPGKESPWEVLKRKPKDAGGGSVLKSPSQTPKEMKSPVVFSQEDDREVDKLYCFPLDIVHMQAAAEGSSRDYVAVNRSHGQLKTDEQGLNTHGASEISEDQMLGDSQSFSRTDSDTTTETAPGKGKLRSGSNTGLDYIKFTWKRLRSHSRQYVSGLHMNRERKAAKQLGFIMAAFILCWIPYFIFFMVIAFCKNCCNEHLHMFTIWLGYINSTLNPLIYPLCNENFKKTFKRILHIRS
Description: CEREP Diversity Panel. Type of assay: binding. On the procedure:
as §1

Assay [11] concerns the target T9, NK1 (h) (agonist radioligand) (Homo sapiens, UniProt P25103).
T9 construct: purchased CEREP (Eurofins Cerep)
Description: CEREP Diversity Panel. Type of assay: binding. On the procedure:
as §1

In assay [12] the target is T10, NK3 (h) (antagonist radioligand) (Homo sapiens, UniProt P29371).
T10 construct: purchased CEREP (Eurofins Cerep)
T10 sequence (P29371 whole entry): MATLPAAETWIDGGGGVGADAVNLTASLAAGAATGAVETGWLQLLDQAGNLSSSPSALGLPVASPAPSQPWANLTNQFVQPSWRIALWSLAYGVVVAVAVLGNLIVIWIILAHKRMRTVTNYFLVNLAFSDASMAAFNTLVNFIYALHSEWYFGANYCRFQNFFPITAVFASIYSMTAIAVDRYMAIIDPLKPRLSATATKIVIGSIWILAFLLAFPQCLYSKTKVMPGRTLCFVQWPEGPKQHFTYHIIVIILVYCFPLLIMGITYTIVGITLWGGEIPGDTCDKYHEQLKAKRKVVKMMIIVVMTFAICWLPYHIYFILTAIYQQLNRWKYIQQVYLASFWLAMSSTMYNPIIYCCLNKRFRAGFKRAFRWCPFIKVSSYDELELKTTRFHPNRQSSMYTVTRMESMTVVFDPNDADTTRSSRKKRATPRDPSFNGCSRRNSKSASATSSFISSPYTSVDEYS
Briefly: CEREP Diversity Panel. Type of assay: binding. On the procedure: as §1

Assay [13] addresses T11, V2 (h) (agonist radioligand) (Homo sapiens, UniProt P30518).
T11 construct: purchased CEREP (Eurofins Cerep)
Description: CEREP Diversity Panel. Type of assay: binding. How it is done:
as §1

Assay [14] has as its target T12, norepinephrine transporter (h) (antagonist radioligand) (Homo sapiens, UniProt P23975).
T12 construct: purchased CEREP (Eurofins Cerep)
Description: CEREP Diversity Panel. Type of assay: binding. On the procedure: as §1

The target in another assay is KDM1A (Homo sapiens, UniProt O60341). Briefly: Chemoprobe based KDM1A target engagement in THP-1 cells. Type of assay: cell-based. On the set-up: Native protein extracts of cells or tissues were obtained in presence of 25 nM OG-881 chemoprobe; endogenous in cells; host or cells: THP-1. To be noted: THP-1 cells treated 24 hr. On the procedure:
Native protein extracts of cells or tissues were obtained in presence of 25 nM OG-881 chemoprobe according the protocol described in Mascaró et al..
Luminescent ELISA: for quantification of total amount of KDM1A protein (TOTAL KDM1A), Luminunc Plates Maxisorp (NUNC; #436110) were coated with a monoclonal anti-KDM1A antibody (Abcam; #ab53269) at 2 µg/mL in PBS. For quantification of the fraction not bound to inhibitor (FREE KDM1A), plates were coated with streptavidin (Promega Biotech Ibérica; #Z7041) at 10 µg/mL in PBS. Coating was performed at 4°C O/N. Wells were washed 3 times in PBS, 0.1% Tween-20 and blocked with PBS-BSA 1% (Sigma; #A3059) for 2 hr. A KDM1A calibration curve of full length rKDM1A (Active Motif; #31334) diluted in PBS was included in each plate. Plates were then incubated 1 hr at RT and washed 5 times. […] Plates were centrifuged during 30 sec to 1,500 x g, shaken for 1 min at 100rpm and incubated inside the micropate reader (Infinite 200, Tecan) for 3 min at 25 °C. The relative luminescence units (RLU) readouts were acquired using a 1000 msec integration time and 150 msec settle time.
All assays were run as triplicate technical replicates (n = 3). After raw data processing (robust elimination of outliers according to Grubbs criteria and subtraction of blank signal on technical replicates), the target engagement was calculated as […]

T9 sequence (P25103 whole entry): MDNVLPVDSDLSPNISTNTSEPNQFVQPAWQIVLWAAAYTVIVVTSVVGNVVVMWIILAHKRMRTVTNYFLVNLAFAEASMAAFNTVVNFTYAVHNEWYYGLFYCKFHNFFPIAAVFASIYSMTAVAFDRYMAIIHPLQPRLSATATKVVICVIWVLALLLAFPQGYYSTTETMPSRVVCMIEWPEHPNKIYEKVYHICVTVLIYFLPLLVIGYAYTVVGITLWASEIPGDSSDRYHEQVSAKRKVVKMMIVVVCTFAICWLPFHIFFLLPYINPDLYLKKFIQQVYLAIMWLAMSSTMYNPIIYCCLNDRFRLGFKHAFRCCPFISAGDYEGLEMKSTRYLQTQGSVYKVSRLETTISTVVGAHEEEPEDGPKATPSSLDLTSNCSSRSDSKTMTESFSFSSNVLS
T5 sequence (P21728 whole entry): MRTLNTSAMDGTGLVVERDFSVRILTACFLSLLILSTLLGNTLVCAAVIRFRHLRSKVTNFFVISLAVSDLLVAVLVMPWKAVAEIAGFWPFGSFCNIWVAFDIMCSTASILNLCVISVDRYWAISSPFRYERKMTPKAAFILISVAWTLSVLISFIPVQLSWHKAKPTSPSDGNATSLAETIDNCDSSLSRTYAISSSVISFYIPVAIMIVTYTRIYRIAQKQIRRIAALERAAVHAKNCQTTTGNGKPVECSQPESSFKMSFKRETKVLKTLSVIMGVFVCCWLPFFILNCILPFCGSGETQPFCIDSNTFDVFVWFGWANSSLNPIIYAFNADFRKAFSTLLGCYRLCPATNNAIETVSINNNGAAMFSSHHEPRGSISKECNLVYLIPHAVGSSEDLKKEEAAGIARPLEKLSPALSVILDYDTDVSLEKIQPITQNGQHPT
T11 sequence (P30518 whole entry): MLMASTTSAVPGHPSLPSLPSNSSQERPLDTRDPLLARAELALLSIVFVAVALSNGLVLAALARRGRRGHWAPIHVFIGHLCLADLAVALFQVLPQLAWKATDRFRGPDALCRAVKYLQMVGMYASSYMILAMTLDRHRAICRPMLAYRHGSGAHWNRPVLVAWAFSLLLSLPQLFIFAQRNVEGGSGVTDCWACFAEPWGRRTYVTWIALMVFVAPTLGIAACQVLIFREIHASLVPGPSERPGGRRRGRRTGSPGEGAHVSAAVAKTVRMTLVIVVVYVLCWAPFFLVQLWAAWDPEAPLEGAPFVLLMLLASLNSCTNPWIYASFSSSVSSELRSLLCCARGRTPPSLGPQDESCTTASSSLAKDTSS
T12 sequence (P23975 whole entry): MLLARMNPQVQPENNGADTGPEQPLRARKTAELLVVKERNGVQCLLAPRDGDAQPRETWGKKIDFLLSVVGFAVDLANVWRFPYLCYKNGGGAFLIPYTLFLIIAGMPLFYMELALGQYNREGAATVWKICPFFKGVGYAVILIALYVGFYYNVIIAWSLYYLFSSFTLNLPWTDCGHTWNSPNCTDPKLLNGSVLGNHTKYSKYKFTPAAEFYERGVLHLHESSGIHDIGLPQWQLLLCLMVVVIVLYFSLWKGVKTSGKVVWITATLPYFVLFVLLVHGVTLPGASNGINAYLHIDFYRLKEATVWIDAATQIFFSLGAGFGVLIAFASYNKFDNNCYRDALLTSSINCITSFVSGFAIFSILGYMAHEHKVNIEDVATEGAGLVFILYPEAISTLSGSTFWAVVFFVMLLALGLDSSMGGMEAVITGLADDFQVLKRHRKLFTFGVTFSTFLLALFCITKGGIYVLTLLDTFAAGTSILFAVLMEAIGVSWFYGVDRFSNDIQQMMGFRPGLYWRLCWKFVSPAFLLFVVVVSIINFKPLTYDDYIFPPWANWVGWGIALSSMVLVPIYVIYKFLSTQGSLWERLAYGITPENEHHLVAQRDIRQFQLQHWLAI

As to `Nc1nnc(CN[C@@H]2C[C@H]2c2ccc(OCc3ccccc3)cc2)o1` [ORY-2001, vafidemstat], the “locomotor activity in the OF test” value in the assay on SAMP8 mice is listed as “no significant genotype or treatment differences”. Besides, the “% inhibition” value is on record as 71% in assay [1] and 1% in assay [2]. The “I2 imidazoline receptor inhibition of ligand binding” value in assay [1] (10 μM) came out at 71%. Besides, the “muscarinic receptor antagonist (MRA) activity” value in assay [2] is “not an MRA”. The inhibition at 10 µM in assay [3] was -4%; in assay [4], -2%; in assay [5], 14%; in assay [6], -15%; in [7], -5%; in assay [8], 8%. For the same compound, the inhibition at 10 µM is 18% in assay [9]; -9% in [10]; 3% in assay [11]; 2% in assay [12]; -12% in [13]; 26% in assay [14]. Further, the EC50 on KDM1A was ~1 nM and 1 nM.
